According to PubChem BioAssay (NCI):
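Compound exposure: 48 hours, 5 concentrations, 96-well plates. The concentration for 50% growth inhibition is given as GI50. TGI is the concentration that stops growth completely.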

What was measured:
Test in all cases: growth of human tumour cells (NCI), 48 h
786-0 renal = system: 786-0 renal
EKVX NSCLC = system: EKVX NSCLC
MOLT-4 leukemia = system: MOLT-4 leukemia
NCI-H23 lung = system: NCI-H23 lung
SF-295 CNS = system: SF-295 CNS
SK-MEL-28 melanoma = system: SK-MEL-28 melanoma
SK-MEL-5 melanoma = system: SK-MEL-5 melanoma
SK-OV-3 ovarian = system: SK-OV-3 ovarian
SNB-19 CNS = system: SNB-19 CNS
TK-10 renal = system: TK-10 renal

## Clc1ccc(-c2csc(Nc3cccc(-c4csc(-c5ccccc5)n4)c3)n2)cc1
786-0 renal
  GI50: 10.8 µM
  TGI: 21.1 µM
EKVX NSCLC
  GI50: 8.36 µM
  TGI: 17.7 µM
MOLT-4 leukemia
  GI50: 19.5 µM
  TGI: > 50 µM
NCI-H23 lung
  GI50: 11.4 µM
  TGI: 26.2 µM
SF-295 CNS
  GI50: 15.9 µM
  TGI: > 50 µM
SK-MEL-28 melanoma
  GI50: 5.93 µM
  TGI: 15.6 µM
SK-MEL-5 melanoma
  GI50: 8.95 µM
  TGI: 18.9 µM
SK-OV-3 ovarian
  GI50: 25.3 µM
  TGI: > 50 µM
SNB-19 CNS
  GI50: 13 µM
  TGI: 27.3 µM
TK-10 renal
  GI50: 19.8 µM
  TGI: > 50 µM

## CCC/C=C1\CCC(CN(C)C)C1=O (stereo not given)
786-0 renal
  TGI: 7.16 µM
EKVX NSCLC
  TGI: 12.3 µM
MOLT-4 leukemia
  TGI: 12.6 µM
NCI-H23 lung
  TGI: 32.8 µM
SF-295 CNS
  TGI: > 55.3 µM
SK-MEL-28 melanoma
  TGI: 14.9 µM
SK-MEL-5 melanoma
  TGI: 32.3 µM
SK-OV-3 ovarian
  TGI: > 56.7 µM
SNB-19 CNS
  TGI: > 67 µM
TK-10 renal
  TGI: 14.6 µM

## Cn1c(=O)c(NC(=O)C(Cl)(Cl)Cl)nc2ccccc21
786-0 renal
  TGI: > 100 µM
EKVX NSCLC
  TGI: > 100 µM
MOLT-4 leukemia
  TGI: > 100 µM
NCI-H23 lung
  TGI: > 100 µM
SF-295 CNS
  TGI: > 100 µM
SK-MEL-28 melanoma
  TGI: > 100 µM
SK-MEL-5 melanoma
  TGI: > 100 µM
SK-OV-3 ovarian
  TGI: > 100 µM
SNB-19 CNS
  TGI: > 100 µM
TK-10 renal
  TGI: > 100 µM

## NC(=O)c1ccccc1NC(=O)C(=O)Cc1nc2ccccc2[nH]c1=O
786-0 renal
  TGI: > 100 µM
EKVX NSCLC
  TGI: > 100 µM
MOLT-4 leukemia
  TGI: > 100 µM
NCI-H23 lung
  TGI: > 100 µM
SF-295 CNS
  TGI: > 100 µM
SK-MEL-28 melanoma
  TGI: > 100 µM
SK-MEL-5 melanoma
  TGI: > 100 µM
SK-OV-3 ovarian
  TGI: > 100 µM
SNB-19 CNS
  TGI: > 100 µM
TK-10 renal
  TGI: > 100 µM

## O=C(CSc1ncn[nH]1)C[P+](c1ccccc1)(c1ccccc1)c1ccccc1
786-0 renal
  TGI: > 100 µM
EKVX NSCLC
  TGI: > 100 µM
MOLT-4 leukemia
  TGI: > 100 µM
NCI-H23 lung
  TGI: > 100 µM
SF-295 CNS
  TGI: > 100 µM
SK-MEL-28 melanoma
  TGI: > 100 µM
SK-MEL-5 melanoma
  TGI: > 100 µM
SK-OV-3 ovarian
  TGI: > 100 µM
SNB-19 CNS
  TGI: > 100 µM
TK-10 renal
  TGI: > 100 µM

## COP(=O)(OC)C(NC(=O)C(F)(F)F)(c1ccccc1)C(F)(F)F (stereo not given)
786-0 renal
  TGI: > 100 µM
EKVX NSCLC
  TGI: > 100 µM
MOLT-4 leukemia
  TGI: > 100 µM
NCI-H23 lung
  TGI: > 100 µM
SF-295 CNS
  TGI: > 100 µM
SK-MEL-28 melanoma
  TGI: > 100 µM
SK-MEL-5 melanoma
  TGI: > 100 µM
SK-OV-3 ovarian
  TGI: > 100 µM
SNB-19 CNS
  TGI: > 100 µM
TK-10 renal
  TGI: > 100 µM

## CN(C)c1nnnn1-c1c(N)n(C)c(=O)n(C)c1=O
786-0 renal
  TGI: > 100 µM
EKVX NSCLC
  TGI: > 100 µM
MOLT-4 leukemia
  TGI: > 100 µM
NCI-H23 lung
  TGI: > 100 µM
SF-295 CNS
  TGI: > 100 µM
SK-MEL-28 melanoma
  TGI: > 100 µM
SK-MEL-5 melanoma
  TGI: > 100 µM
SK-OV-3 ovarian
  TGI: > 100 µM
SNB-19 CNS
  TGI: > 100 µM
TK-10 renal
  TGI: > 100 µM

## O=S(=O)(O)c1ccc(N=Nc2nc(C(F)(F)F)c(C(F)(F)F)[nH]2)cc1
786-0 renal
  TGI: > 100 µM
EKVX NSCLC
  TGI: > 100 µM
MOLT-4 leukemia
  TGI: > 100 µM
NCI-H23 lung
  TGI: 68.7 µM
SF-295 CNS
  TGI: > 100 µM
SK-MEL-28 melanoma
  TGI: 36.2 µM
SK-MEL-5 melanoma
  TGI: > 100 µM
SK-OV-3 ovarian
  TGI: > 100 µM
SNB-19 CNS
  TGI: 71.1 µM
TK-10 renal
  TGI: > 100 µM

## CC(=O)OC1=CC2=CC[C@H]3[C@@H]4CCC(=O)[C@@]4(C)CC(=O)[C@]3(S)[C@@]2(C)CC1
786-0 renal
  TGI: 87 µM
EKVX NSCLC
  TGI: > 100 µM
MOLT-4 leukemia
  TGI: 37.4 µM
NCI-H23 lung
  TGI: > 100 µM
SF-295 CNS
  TGI: > 100 µM
SK-MEL-28 melanoma
  TGI: > 100 µM
SK-MEL-5 melanoma
  TGI: > 100 µM
SK-OV-3 ovarian
  TGI: > 100 µM
SNB-19 CNS
  TGI: > 100 µM
TK-10 renal
  TGI: 85.1 µM

## NC1=NC(c2ccc(Cl)cc2)N(c2ccc(S(N)(=O)=O)cc2)C(N)=N1 (stereo not given)
786-0 renal
  TGI: > 100 µM
EKVX NSCLC
  TGI: > 100 µM
MOLT-4 leukemia
  TGI: > 100 µM
NCI-H23 lung
  TGI: > 100 µM
SF-295 CNS
  TGI: > 100 µM
SK-MEL-28 melanoma
  TGI: > 100 µM
SK-MEL-5 melanoma
  TGI: > 100 µM
SK-OV-3 ovarian
  TGI: > 100 µM
SNB-19 CNS
  TGI: > 100 µM
TK-10 renal
  TGI: > 100 µM

## S=c1[nH]nc(Cc2ccccc2)c(=S)[nH]1
786-0 renal
  TGI: > 100 µM
EKVX NSCLC
  TGI: > 31.6 µM
MOLT-4 leukemia
  TGI: > 100 µM
NCI-H23 lung
  TGI: > 100 µM
SF-295 CNS
  TGI: > 100 µM
SK-MEL-28 melanoma
  TGI: > 100 µM
SK-MEL-5 melanoma
  TGI: > 82.2 µM
SK-OV-3 ovarian
  TGI: > 100 µM
SNB-19 CNS
  TGI: > 100 µM
TK-10 renal
  TGI: > 94.1 µM

## CN(C)c1ccc(/C=C/c2ccc(/C=C/c3ccc(N(C)C)cc3)cc2)cc1
786-0 renal
  TGI: > 100 µM
EKVX NSCLC
  TGI: > 100 µM
MOLT-4 leukemia
  TGI: > 100 µM
NCI-H23 lung
  TGI: > 100 µM
SF-295 CNS
  TGI: > 100 µM
SK-MEL-28 melanoma
  TGI: > 100 µM
SK-MEL-5 melanoma
  TGI: > 100 µM
SK-OV-3 ovarian
  TGI: > 100 µM
SNB-19 CNS
  TGI: > 100 µM
TK-10 renal
  TGI: > 100 µM

## CC(C)N1CCN(Cc2ccc3c(NNC(=O)c4ccccc4)nc4cc(F)ccc4n23)CC1
786-0 renal
  GI50: 0.323 µM
  TGI: 6.01 µM
EKVX NSCLC
  GI50: 0.172 µM
  TGI: 6.79 µM
MOLT-4 leukemia
  GI50: 0.24 µM
  TGI: 2.04 µM
NCI-H23 lung
  GI50: 0.93 µM
  TGI: 8.94 µM
SF-295 CNS
  GI50: 0.277 µM
  TGI: 1.69 µM
SK-MEL-28 melanoma
  GI50: 0.599 µM
  TGI: 4.58 µM
SK-MEL-5 melanoma
  GI50: 0.921 µM
  TGI: 3.11 µM
SK-OV-3 ovarian
  GI50: 0.338 µM
  TGI: 15.3 µM
SNB-19 CNS
  GI50: 0.537 µM
  TGI: 8.07 µM
TK-10 renal
  GI50: 0.216 µM
  TGI: 23.9 µM

## Nc1nc(N)c(C=Nc2ccc(Br)cc2)c(Nc2ccc(Br)cc2)n1
786-0 renal
  GI50: 11.1 µM
  TGI: 23 µM
EKVX NSCLC
  GI50: 10.5 µM
  TGI: 24.1 µM
MOLT-4 leukemia
  GI50: 10.7 µM
  TGI: 28.5 µM
NCI-H23 lung
  GI50: 10 µM
  TGI: 27.3 µM
SF-295 CNS
  GI50: 11.3 µM
  TGI: 38.5 µM
SK-MEL-28 melanoma
  GI50: 12.3 µM
  TGI: 24.7 µM
SK-MEL-5 melanoma
  GI50: 13.5 µM
  TGI: 26.3 µM
SK-OV-3 ovarian
  GI50: 15.1 µM
  TGI: 28.4 µM
SNB-19 CNS
  GI50: 12.4 µM
  TGI: 32.4 µM
TK-10 renal
  GI50: 13 µM
  TGI: 37.6 µM

## C[N+](C)(C)CC1CCC/C1=N/O (stereo not given)
786-0 renal
  TGI: 44.5 µM
EKVX NSCLC
  TGI: > 100 µM
MOLT-4 leukemia
  TGI: > 100 µM
NCI-H23 lung
  TGI: > 100 µM
SF-295 CNS
  TGI: > 100 µM
SK-MEL-28 melanoma
  TGI: > 100 µM
SK-MEL-5 melanoma
  TGI: > 100 µM
SK-OV-3 ovarian
  TGI: > 100 µM
SNB-19 CNS
  TGI: > 100 µM
TK-10 renal
  TGI: > 100 µM

## Cc1cccc(C(C)C)c1N1C(=O)C(=O)C(c2nc3ccccc3o2)C(=O)C1=O
786-0 renal
  TGI: > 100 µM
EKVX NSCLC
  TGI: > 100 µM
MOLT-4 leukemia
  TGI: 63.8 µM
NCI-H23 lung
  TGI: > 100 µM
SF-295 CNS
  TGI: > 100 µM
SK-MEL-28 melanoma
  TGI: > 100 µM
SK-MEL-5 melanoma
  TGI: > 100 µM
SK-OV-3 ovarian
  TGI: > 100 µM
SNB-19 CNS
  TGI: > 100 µM
TK-10 renal
  TGI: > 100 µM

## Cc1cc(-c2ccccc2)nc(Nc2nc3ccccc3o2)n1
786-0 renal
  TGI: > 100 µM
EKVX NSCLC
  TGI: > 100 µM
MOLT-4 leukemia
  TGI: > 100 µM
NCI-H23 lung
  TGI: > 100 µM
SF-295 CNS
  TGI: > 100 µM
SK-MEL-28 melanoma
  TGI: > 100 µM
SK-MEL-5 melanoma
  TGI: > 100 µM
SK-OV-3 ovarian
  TGI: > 100 µM
SNB-19 CNS
  TGI: > 100 µM
TK-10 renal
  TGI: > 100 µM

## COC(=O)C1C=CCON2CCc3c(n(C)c4ccccc34)C12 (stereo not given)
786-0 renal
  TGI: > 100 µM
EKVX NSCLC
  TGI: > 100 µM
MOLT-4 leukemia
  TGI: > 100 µM
NCI-H23 lung
  TGI: > 100 µM
SF-295 CNS
  TGI: > 100 µM
SK-MEL-28 melanoma
  TGI: > 100 µM
SK-MEL-5 melanoma
  TGI: > 100 µM
SK-OV-3 ovarian
  TGI: > 100 µM
SNB-19 CNS
  TGI: > 100 µM
TK-10 renal
  TGI: > 100 µM

## COC(=O)CCC1CCc2c(OC)ccc(OC)c2C1=O (stereo not given)
786-0 renal
  TGI: > 100 µM
EKVX NSCLC
  TGI: > 100 µM
MOLT-4 leukemia
  TGI: > 100 µM
NCI-H23 lung
  TGI: > 100 µM
SF-295 CNS
  TGI: > 100 µM
SK-MEL-28 melanoma
  TGI: > 100 µM
SK-MEL-5 melanoma
  TGI: > 100 µM
SK-OV-3 ovarian
  TGI: > 100 µM
SNB-19 CNS
  TGI: > 100 µM
TK-10 renal
  TGI: > 100 µM

## Clc1ccc(-c2nnc(-c3cccc4ccccc34)o2)cc1Cl
786-0 renal
  TGI: > 100 µM
EKVX NSCLC
  TGI: > 100 µM
MOLT-4 leukemia
  TGI: > 100 µM
NCI-H23 lung
  TGI: > 100 µM
SF-295 CNS
  TGI: > 100 µM
SK-MEL-28 melanoma
  TGI: > 100 µM
SK-MEL-5 melanoma
  TGI: > 100 µM
SK-OV-3 ovarian
  TGI: > 100 µM
SNB-19 CNS
  TGI: > 100 µM
TK-10 renal
  TGI: > 100 µM
